The target of test [1] is Glycogen synthase kinase-3 alpha (Homo sapiens, UniProt P49840). Description: TR-FRET Assay. A digest of the protocol: (§1)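 Enzyme and test compound were first incubated together for 30 minutes in assay buffer. The kinase reaction followed and was stopped with EDTA. The pSer641 signal was read by time-resolved FRET.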
The target of test [2] is Glycogen synthase kinase-3 beta (Homo sapiens, UniProt P49841). Put plainly: TR-FRET Assay. Put shortly:
as §1

Where “and” joins values, the source holds several entries; their conditions need not be identical. Identical values can stand only once.

Chain of Glycogen synthase kinase-3 beta (P49841 whole entry): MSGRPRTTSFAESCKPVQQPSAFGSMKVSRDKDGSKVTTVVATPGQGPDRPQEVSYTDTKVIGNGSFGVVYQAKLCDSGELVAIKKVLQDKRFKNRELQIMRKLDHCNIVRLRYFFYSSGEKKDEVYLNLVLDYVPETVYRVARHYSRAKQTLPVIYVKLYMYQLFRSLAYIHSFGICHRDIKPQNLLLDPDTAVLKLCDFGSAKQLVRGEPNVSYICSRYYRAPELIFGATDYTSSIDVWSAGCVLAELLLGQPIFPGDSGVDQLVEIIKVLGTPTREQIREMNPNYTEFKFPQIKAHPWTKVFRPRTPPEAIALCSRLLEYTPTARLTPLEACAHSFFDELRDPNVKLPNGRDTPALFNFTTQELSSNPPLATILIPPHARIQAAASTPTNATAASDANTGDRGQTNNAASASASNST
Chain of Glycogen synthase kinase-3 alpha (P49840 whole entry): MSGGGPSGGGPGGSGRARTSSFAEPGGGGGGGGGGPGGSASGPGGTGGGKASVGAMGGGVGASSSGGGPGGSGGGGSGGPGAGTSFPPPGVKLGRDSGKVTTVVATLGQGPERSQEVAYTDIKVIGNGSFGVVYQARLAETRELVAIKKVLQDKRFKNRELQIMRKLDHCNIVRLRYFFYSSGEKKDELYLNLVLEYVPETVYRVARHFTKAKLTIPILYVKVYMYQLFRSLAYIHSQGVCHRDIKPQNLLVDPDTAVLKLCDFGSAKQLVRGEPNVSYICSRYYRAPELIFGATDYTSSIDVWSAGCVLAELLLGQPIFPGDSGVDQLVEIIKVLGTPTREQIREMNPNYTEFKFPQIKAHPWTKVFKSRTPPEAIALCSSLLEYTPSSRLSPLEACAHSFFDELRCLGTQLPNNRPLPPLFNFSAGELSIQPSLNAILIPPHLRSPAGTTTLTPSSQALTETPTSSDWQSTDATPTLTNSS

For `CC[C@@]1(c2cccc(-c3ccnc4c(F)cccc34)c2)C2=CN=NC2NC2=C1C(=O)NC(C)(C)C2` (stereo not given in full) [US20250313563, Compound 948828], the IC50 in test [1] is < 100 nM and 100 to 1000 nM; in test [2], 100 to 1000 nM and 1000 to 5000 nM.
For the compound `CC[C@]1(c2cccc(-c3c(C)cncc3C)c2)C2=CN=NC2NC2=C1C(=O)NC(C)(C)C2` (stereo not given in full) [US20250313563, Compound 948829], the IC50 in test [1] and in test [2] was more than 5000 nM in each case.
Take `CCC1(c2cccc(-c3ccnc(C)c3)c2)C2=C(CC(C)(C)NC2=O)NC2N=NC(Cl)=C21` (stereo not given) [US20250313563, Compound 948998]: the IC50 in test [1] is < 100 nM and 100 to 1000 nM; in test [2], < 100 nM and 1000 to 5000 nM.
For the compound `CCC1(c2cccc(-c3ccncc3F)c2)C2=C(CC(C)(C)NC2=O)NC2N=NC(F)=C21` (stereo not given) [US20250313563, Compound 948999], the values for the half-maximal inhibitory concentration (IC50) in test [1] and in test [2] were less than 100 nM and 100 to 1000 nM, respectively.
The matching figures for `CC[C@]1(c2cccc(N3CCOCC3)c2)C2=C(CC(C)(C)NC2=O)NC2N=NC(C(F)(F)F)=C21` (stereo not given in full) [US20250313563, Compound 949000]: 100 to 1000 nM and 100 to 1000 nM.
For `CC[C@]1(c2cccc(-c3ccnc(C)c3)c2)C2=C(CC(C)(C)NC2=O)NC2N=NC(F)=C21` (stereo not given in full) [US20250313563, Compound 949001] the same measures were 100 to 1000 nM and 100 to 1000 nM.
The matching figures for `CC[C@]1(c2cccc(-c3cnn(C)c3)c2)C2=C(CC(C)(C)NC2=O)NC2N=NC(F)=C21` (stereo not given in full) [US20250313563, Compound 949002]: 1000 to 5000 nM and more than 5000 nM.
As for `CC[C@]1(c2cccc(-c3cncn3C)c2)C2=C(CC(C)(C)NC2=O)NC2N=NC(C(F)(F)F)=C21` (stereo not given in full) [US20250313563, Compound 949003], the IC50 in test [1] and in test [2] was 100 to 1000 nM throughout.
Turning to `CC[C@@]1(c2cccc(C(F)F)c2)C2=CN=NC2NC2=C1C(=O)NC(C)(C)C2` (stereo not given in full) [US20250313563, Compound 949006], the IC50 was < 100 nM and 100 to 1000 nM in test [1]; 100 to 1000 nM and > 5000 nM in test [2].
Turning to `CC[C@]1(c2cccc(C(F)F)c2)C2=CN=NC2NC2=C1C(=O)NC(C)(C)C2` (stereo not given in full) [US20250313563, Compound 949007], the IC50 in test [1] is 1000 to 5000 nM; in test [2] it was more than 5000 nM.
With `CC[C@@]1(c2cccc(-c3ccnc(C)c3)c2)C2=C(CC(C)(C)NC2=O)NC2N=NC(F)=C21` (stereo not given in full) [US20250313563, Compound 949012], the IC50 in test [1] was less than 100 nM; in test [2] it was 100 to 1000 nM.
The matching figures for `CC[C@@]1(c2cccc(N3CCOCC3)c2)C2=C(CC(C)(C)NC2=O)NC2N=NC(C(F)(F)F)=C21` (stereo not given in full) [US20250313563, Compound 949013]: less than 100 nM and less than 100 nM.
As for `CC[C@@]1(c2cccc(C(F)(F)F)c2)C2=CN=NC2NC2=C1C(=O)N(c1cccc(C)c1)CC2` (stereo not given in full) [US20250313563, Compound 949041], the results for the IC50 in test [1] and in test [2] were 1000 to 5000 nM and more than 5000 nM, respectively.
For `CCC1(c2cccc(C3CCCC3)c2)C2=CN=NC2NC2=C1C(=O)CC(C)(C)C2` (stereo not given) [US20250313563, Compound 949082] the same measures were less than 100 nM and less than 100 nM.
The matching figures for `CCc1cccc(C2(CC)C3=C(N=NC3)NC3=C2C(=O)CC(C)(C)C3)c1` (stereo not given) [US20250313563, Compound 949083]: less than 100 nM and 100 to 1000 nM.
Take `CC[C@]1(c2cccc(C(F)(F)C(F)(F)F)c2)C2=CN=NC2NC2=C1C(=O)CC(C)(C)C2` (stereo not given in full) [US20250313563, Compound 949103]: the half-inhibitory concentration (IC50) in test [1] was < 100 nM and 100 to 1000 nM; in test [2], < 100 nM and 100 to 1000 nM.
With `CC[C@]1(c2cccc(OCC(F)F)c2)C2=CN=NC2NC2=C1C(=O)CC(C)(C)C2` (stereo not given in full) [US20250313563, Compound 949104], the IC50 in test [1] and in test [2] was less than 100 nM in each case.
For the compound `CC[C@@]1(c2cccc(-c3cnn(CCOC)c3)c2)C2=CN=NC2NC2=C1C(=O)NC(C)(C)C2` (stereo not given in full) [US20250313563, Compound 949105], the IC50 was less than 100 nM in test [1] and 100 to 1000 nM in test [2].
The matching figures for `CC[C@]1(c2cccc(-c3cn(C)nc3C(C)C)c2)C2=CN=NC2NC2=C1C(=O)NC(C)(C)C2` (stereo not given in full) [US20250313563, Compound 949106]: 1000 to 5000 nM and more than 5000 nM.
Take `CC[C@]1(c2cccc(-c3cnn(C(C)(C)C)c3)c2)C2=CN=NC2NC2=C1C(=O)NC(C)(C)C2` (stereo not given in full) [US20250313563, Compound 949107]: the half-maximal inhibitory concentration (IC50) in test [1] and in test [2] was more than 5000 nM throughout.
Take `CC[C@@]1(c2cccc(-c3cc(OC)ncc3F)c2)C2=CN=NC2NC2=C1C(=O)NC(C)(C)C2` (stereo not given in full) [US20250313563, Compound 949109]: the IC50 is less than 100 nM in test [1] and 100 to 1000 nM in test [2].
For `CC[C@@]1(c2cccc(-c3ccnc4cnccc34)c2)C2=CN=NC2NC2=C1C(=O)NC(C)(C)C2` (stereo not given in full) [US20250313563, Compound 949110] the same measures were 1000 to 5000 nM and more than 5000 nM.
The matching figures for `CC[C@@]1(c2cccc(-c3cn(C)nc3C(C)C)c2)C2=CN=NC2NC2=C1C(=O)NC(C)(C)C2` (stereo not given in full) [US20250313563, Compound 949111]: 100 to 1000 nM and 1000 to 5000 nM.
The matching figures for `CC[C@@]1(c2cccc(OCC(F)F)c2)C2=CN=NC2NC2=C1C(=O)CC(C)(C)C2` (stereo not given in full) [US20250313563, Compound 949113]: 1000 to 5000 nM and more than 5000 nM.
Turning to `CC[C@@]1(c2cccc(-c3ccnn3C)c2)C2=CN=NC2NC2=C1C(=O)N[C@@]1(CCCOC1)C2` (stereo not given in full) [US20250313563, Compound 949115], the IC50 in test [1] was < 100 nM and 100 to 1000 nM; in test [2], < 100 nM and 1000 to 5000 nM.
Turning to `CC[C@]1(c2cccc(C(F)(F)F)c2)C2=CN=NC2NC2=C1C(=O)N(c1ccc(C)cc1)CC2` (stereo not given in full) [US20250313563, Compound 949118], the IC50 in test [1] is less than 100 nM; in test [2], 100 to 1000 nM.
For `CC[C@@]1(c2cccc(C(F)(F)F)c2)C2=CN=NC2NC2=C1C(=O)N(c1ccc(C)cc1)CC2` (stereo not given in full) [US20250313563, Compound 949119] the same measures were 1000 to 5000 nM and more than 5000 nM.
The matching figures for `CC[C@@]1(c2cccc(C(F)(F)F)c2)C2=CN=NC2NC2=C1C(=O)N(c1cnc(OC)nc1)CC2` (stereo not given in full) [US20250313563, Compound 949127]: 1000 to 5000 nM and more than 5000 nM.
For `CC[C@@]1(c2cccc(C(F)(F)F)c2)C2=CN=NC2NC2=C1C(=O)N(c1ccccc1C)CC2` (stereo not given in full) [US20250313563, Compound 949129] the same measures were more than 5000 nM and more than 5000 nM.
On to `CC[C@]1(c2cccc(C3CN(C(C)=O)C3)c2)C2=CN=NC2NC2=C1C(=O)CC(C)(C)C2` (stereo not given in full) [US20250313563, Compound 949131], for which the IC50 lay in the range of 100 to 1000 nM in test [1] and 1000 to 5000 nM in test [2].
For `CC[C@@]1(c2cccc(C3CN(C(C)=O)C3)c2)C2=CN=NC2NC2=C1C(=O)CC(C)(C)C2` (stereo not given in full) [US20250313563, Compound 949132] the same measures were more than 5000 nM and more than 5000 nM.
On to `CCC1(c2cccc(-c3ccnc(C)c3)c2)C2=C(CC(C)(C)NC2=O)NC2N=NC(C(F)F)=C21` (stereo not given) [US20250313563, Compound 949169], for which the IC50 in test [1] was < 100 nM and 100 to 1000 nM; in test [2], < 100 nM and 1000 to 5000 nM.
As for `CCC1(c2cccc(-c3cn(C)nc3C)c2)C2=C(CC(C)(C)NC2=O)NC2N=NC(C(F)F)=C21` (stereo not given) [US20250313563, Compound 949170], the concentration for half-maximal inhibition (IC50) in test [1] and in test [2] was less than 100 nM throughout.
Take `CCC1(c2cccc(-c3cnn(C)c3)c2)C2=C(CC(C)(C)NC2=O)NC2N=NC(C(F)F)=C21` (stereo not given) [US20250313563, Compound 949171]: the IC50 was less than 100 nM in test [1]; < 100 nM and 1000 to 5000 nM in test [2].
`CCC1(c2cccc(N(C)c3ncccn3)c2)C2=C(CC(C)(C)NC2=O)NC2N=NC(F)=C21` (stereo not given) [US20250313563, Compound 949172]: the IC50 in test [1] was < 100 nM and 100 to 1000 nM; in test [2], < 100 nM and 1000 to 5000 nM.
Regarding `CCC1(c2cccc(C(C)C)c2)C2=C(CC(C)(C)NC2=O)NC2N=NC(C)=C21` (stereo not given) [US20250313563, Compound 949173], the IC50 in test [1] and in test [2] was less than 100 nM in each case.
In the case of `CCC1(c2cccc(-c3cc(C)nnc3C)c2)C2=C(CC(C)(C)NC2=O)NC2N=NC(C(F)(F)F)=C21` (stereo not given) [US20250313563, Compound 949174], the IC50 in test [1] is < 100 nM and 100 to 1000 nM; in test [2], < 100 nM and 100 to 1000 nM.
As for `CC[C@]1(c2cccc(S(=O)(=O)CC3CC3)c2)C2=C(CC(C)(C)NC2=O)NC2N=NC(C(F)(F)F)=C21` (stereo not given in full) [US20250313563, Compound 949175], the IC50 in test [1] and in test [2] was less than 100 nM each time.
On to `CC[C@]1(c2cccc(-c3cn(C)nc3C)c2)C2=C(CC(C)(C)NC2=O)NC2N=NC(F)=C21` (stereo not given in full) [US20250313563, Compound 949176], for which the IC50 in test [1] is 1000 to 5000 nM; in test [2] it was more than 5000 nM.
Turning to `CC[C@@]1(c2cccc(S(=O)(=O)C3CC3)c2)C2=CN=NC2NC2=C1C(=O)N(C)C(C)(C)C2` (stereo not given in full) [US20250313563, Compound 949177], the IC50 in test [1] was < 100 nM and 100 to 1000 nM; in test [2], < 100 nM and 1000 to 5000 nM.
Turning to `CC[C@]1(c2cccc(N3CCCCC3)c2)C2=C(CC(C)(C)NC2=O)NC2N=NC(C(F)(F)F)=C21` (stereo not given in full) [US20250313563, Compound 949178], the values for the IC50 in test [1] and in test [2] were 100 to 1000 nM and 1000 to 5000 nM, respectively.
For `CC[C@@]1(c2cccc(N(C)c3ncccn3)c2)C2=CN=NC2NC2=C1C(=O)NC(C)(C)C2` (stereo not given in full) [US20250313563, Compound 949179] the same measures were 100 to 1000 nM and more than 5000 nM.
The matching figures for `CC[C@]1(c2cccc(N(C)c3ncccn3)c2)C2=C(CC(C)(C)NC2=O)NC2N=NC(C(F)(F)F)=C21` (stereo not given in full) [US20250313563, Compound 949180]: less than 100 nM and 100 to 1000 nM.
The matching figures for `CC[C@]1(c2cccc(S(=O)(=O)C3CC3)c2)C2=CN=NC2NC2=C1C(=O)N(C)C(C)(C)C2` (stereo not given in full) [US20250313563, Compound 949184]: 1000 to 5000 nM and more than 5000 nM.
`CC[C@@]1(c2cccc(-c3cn(C)nc3C)c2)C2=C(CC(C)(C)NC2=O)NC2N=NC(F)=C21` (stereo not given in full) [US20250313563, Compound 949185]: the IC50 in test [1] was less than 100 nM; in test [2] it was < 100 nM and 1000 to 5000 nM.

For the origin of these results see BindingDB's records for patent US20250313563 (The Broad Institute, 2025).
